Results taken from PubChem BioAssay (NCI).
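Five concentrations, 48 hours, 96-well plates. GI50 is the concentration that inhibits growth by half. Definition used: TGI = concentration required for complete inhibition of growth.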

Assays:
Assay in all cases: NCI anticancer screen, dose series, 48 h
K-562 leukemia = test system: K-562 leukemia
SW-620 colon = test system: SW-620 colon
NCI-H226 lung = test system: NCI-H226 lung
SR leukemia = test system: SR leukemia
HS 578T breast = test system: HS 578T breast
COLO 205 colon = test system: COLO 205 colon
OVCAR-4 ovarian = test system: OVCAR-4 ovarian
HCT-15 colon = test system: HCT-15 colon
DU-145 prostate = test system: DU-145 prostate
PC-3 prostate = test system: PC-3 prostate
NCI-H460 lung = test system: NCI-H460 lung
A498 renal = test system: A498 renal
HCC-2998 colon = test system: HCC-2998 colon
A549 NSCLC = test system: A549 NSCLC
CCRF-CEM leukemia = test system: CCRF-CEM leukemia
IGROV1 ovarian = test system: IGROV1 ovarian
UO-31 renal = test system: UO-31 renal
MDA-MB-435 = test system: MDA-MB-435
HCT-116 colon = test system: HCT-116 colon
SK-MEL-28 melanoma = test system: SK-MEL-28 melanoma
RXF 393 renal = test system: RXF 393 renal
TK-10 renal = test system: TK-10 renal
SF-539 CNS = test system: SF-539 CNS
SN12C renal = test system: SN12C renal
NCI/ADR-RES ovarian = test system: NCI/ADR-RES ovarian
M14 melanoma = test system: M14 melanoma
BT-549 breast = test system: BT-549 breast
OVCAR-8 ovarian = test system: OVCAR-8 ovarian
SF-295 CNS = test system: SF-295 CNS
HL-60(TB) leukemia = test system: HL-60(TB) leukemia
CAKI-1 renal = test system: CAKI-1 renal
LOX IMVI melanoma = test system: LOX IMVI melanoma
ACHN renal = test system: ACHN renal
NCI-H522 lung = test system: NCI-H522 lung
T-47D breast = test system: T-47D breast
SNB-75 CNS = test system: SNB-75 CNS
786-0 renal = test system: 786-0 renal
HOP-62 NSCLC = test system: HOP-62 NSCLC
HOP-92 NSCLC = test system: HOP-92 NSCLC
SF-268 CNS = test system: SF-268 CNS
MDA-MB-231 breast = test system: MDA-MB-231 breast
SK-OV-3 ovarian = test system: SK-OV-3 ovarian
SK-MEL-2 melanoma = test system: SK-MEL-2 melanoma
MALME-3M melanoma = test system: MALME-3M melanoma
SNB-19 CNS = test system: SNB-19 CNS
KM12 colon = test system: KM12 colon
UACC-257 melanoma = test system: UACC-257 melanoma
OVCAR-3 ovarian = test system: OVCAR-3 ovarian
MOLT-4 leukemia = test system: MOLT-4 leukemia
MCF7 breast = test system: MCF7 breast
EKVX NSCLC = test system: EKVX NSCLC
U251 CNS = test system: U251 CNS
HT29 colon = test system: HT29 colon
NCI-H23 lung = test system: NCI-H23 lung
UACC-62 melanoma = test system: UACC-62 melanoma
OVCAR-5 ovarian = test system: OVCAR-5 ovarian
RPMI-8226 leukemia = test system: RPMI-8226 leukemia
SK-MEL-5 melanoma = test system: SK-MEL-5 melanoma

## O=C(NNc1nc2cc(F)c(F)cc2n2cccc12)c1ccncn1
K-562 leukemia
  GI50: 0.173 µM
  TGI: > 30 µM
SW-620 colon
  GI50: 0.313 µM
  TGI: 12.2 µM
NCI-H226 lung
  GI50: 0.381 µM
  TGI: 5.66 µM
SR leukemia
  GI50: 0.146 µM
  TGI: > 12.3 µM
HS 578T breast
  GI50: 2.94 µM
  TGI: 20.4 µM
COLO 205 colon
  GI50: 0.313 µM
  TGI: 4.06 µM
OVCAR-4 ovarian
  GI50: 0.18 µM
  TGI: 3.61 µM
HCT-15 colon
  GI50: 0.119 µM
  TGI: 5.52 µM
DU-145 prostate
  GI50: 0.4 µM
  TGI: 18.2 µM
PC-3 prostate
  GI50: 0.309 µM
  TGI: > 13.4 µM
NCI-H460 lung
  GI50: 0.161 µM
  TGI: 9.46 µM
A498 renal
  GI50: 1.14 µM
  TGI: 5.62 µM
HCC-2998 colon
  GI50: 0.452 µM
  TGI: 4.55 µM
A549 NSCLC
  GI50: 0.275 µM
  TGI: 20.2 µM
CCRF-CEM leukemia
  GI50: 0.142 µM
  TGI: > 30 µM
IGROV1 ovarian
  GI50: 0.206 µM
  TGI: 4.87 µM
UO-31 renal
  GI50: 0.14 µM
  TGI: 4.19 µM
MDA-MB-435
  GI50: 1.12 µM
  TGI: 6.96 µM
HCT-116 colon
  GI50: 0.217 µM
  TGI: 5.43 µM
SK-MEL-28 melanoma
  GI50: 0.771 µM
  TGI: 6.35 µM
RXF 393 renal
  GI50: 0.834 µM
  TGI: 5.16 µM
TK-10 renal
  GI50: 0.547 µM
  TGI: 5.18 µM
SF-539 CNS
  GI50: 0.596 µM
  TGI: 6.3 µM
SN12C renal
  GI50: 0.678 µM
  TGI: 9.34 µM
NCI/ADR-RES ovarian
  GI50: 0.225 µM
  TGI: 6.33 µM
M14 melanoma
  GI50: 0.37 µM
  TGI: 8.6 µM
BT-549 breast
  GI50: 1.4 µM
  TGI: 8.94 µM
OVCAR-8 ovarian
  GI50: 0.253 µM
  TGI: 9.55 µM
SF-295 CNS
  GI50: 0.156 µM
  TGI: 3.87 µM
HL-60(TB) leukemia
  GI50: 0.39 µM
  TGI: > 14.8 µM
CAKI-1 renal
  GI50: 0.286 µM
  TGI: 4.22 µM
LOX IMVI melanoma
  GI50: 0.191 µM
  TGI: 5.11 µM
ACHN renal
  GI50: 0.187 µM
  TGI: 3.93 µM
NCI-H522 lung
  GI50: 0.803 µM
  TGI: 11.6 µM
T-47D breast
  GI50: 0.353 µM
  TGI: 5.17 µM
SNB-75 CNS
  GI50: 0.365 µM
  TGI: 6.35 µM
786-0 renal
  GI50: 1.01 µM
  TGI: 6.64 µM
HOP-62 NSCLC
  GI50: 0.199 µM
  TGI: 6.66 µM
HOP-92 NSCLC
  GI50: 0.697 µM
  TGI: 6.38 µM
SF-268 CNS
  GI50: 0.408 µM
  TGI: 9.39 µM
MDA-MB-231 breast
  GI50: 0.839 µM
  TGI: 6.95 µM
SK-OV-3 ovarian
  GI50: 0.522 µM
  TGI: 5.16 µM
SK-MEL-2 melanoma
  GI50: 3.52 µM
  TGI: 11.5 µM
MALME-3M melanoma
  GI50: 1.5 µM
  TGI: 6.77 µM
SNB-19 CNS
  GI50: 0.417 µM
  TGI: 10.6 µM
KM12 colon
  GI50: 0.331 µM
  TGI: 12.5 µM
UACC-257 melanoma
  GI50: 0.926 µM
  TGI: 5.88 µM
OVCAR-3 ovarian
  GI50: 0.301 µM
  TGI: 5.16 µM
MOLT-4 leukemia
  GI50: 0.179 µM
  TGI: > 30 µM
MCF7 breast
  GI50: 0.235 µM
  TGI: 3.93 µM
EKVX NSCLC
  GI50: 0.255 µM
  TGI: 4.93 µM
U251 CNS
  GI50: 0.182 µM
  TGI: 7.02 µM
HT29 colon
  GI50: 0.395 µM
  TGI: 15.3 µM
NCI-H23 lung
  GI50: 1.26 µM
  TGI: 11.5 µM
UACC-62 melanoma
  GI50: 0.333 µM
  TGI: 5.14 µM
OVCAR-5 ovarian
  GI50: 1.19 µM
  TGI: 11.4 µM
RPMI-8226 leukemia
  GI50: 0.571 µM
  TGI: > 20.9 µM
SK-MEL-5 melanoma
  GI50: 0.745 µM
  TGI: 5.12 µM
